The target in data set [1] is T1, Solute carrier family 22 member 6 (Homo sapiens, UniProt Q4U2R8).
T1 sequence (Q4U2R8 whole entry): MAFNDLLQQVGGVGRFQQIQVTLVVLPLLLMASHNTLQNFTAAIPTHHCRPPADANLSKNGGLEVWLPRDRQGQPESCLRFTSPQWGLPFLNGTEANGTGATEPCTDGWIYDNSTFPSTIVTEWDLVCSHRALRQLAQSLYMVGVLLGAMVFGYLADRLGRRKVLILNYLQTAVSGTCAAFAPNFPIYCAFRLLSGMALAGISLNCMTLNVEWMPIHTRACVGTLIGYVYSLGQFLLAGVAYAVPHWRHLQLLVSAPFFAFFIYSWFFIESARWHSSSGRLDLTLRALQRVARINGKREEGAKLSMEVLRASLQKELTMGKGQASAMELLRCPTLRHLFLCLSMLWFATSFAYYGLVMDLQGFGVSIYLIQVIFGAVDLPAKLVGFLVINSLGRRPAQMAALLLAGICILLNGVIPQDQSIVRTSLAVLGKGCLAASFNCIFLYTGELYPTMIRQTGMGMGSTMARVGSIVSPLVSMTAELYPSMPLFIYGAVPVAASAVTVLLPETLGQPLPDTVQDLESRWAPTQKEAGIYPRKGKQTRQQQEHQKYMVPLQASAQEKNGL
Description: (§1) TP_TRANSPORTER: uptake in Xenopus laevis oocytes. The format is functional, cell-based. The conditions noted are these: oocyte.

Data set [2] deals with T2, Solute carrier family 22 member 6 (Rattus norvegicus, UniProt O35956).
T2 sequence (O35956 whole entry): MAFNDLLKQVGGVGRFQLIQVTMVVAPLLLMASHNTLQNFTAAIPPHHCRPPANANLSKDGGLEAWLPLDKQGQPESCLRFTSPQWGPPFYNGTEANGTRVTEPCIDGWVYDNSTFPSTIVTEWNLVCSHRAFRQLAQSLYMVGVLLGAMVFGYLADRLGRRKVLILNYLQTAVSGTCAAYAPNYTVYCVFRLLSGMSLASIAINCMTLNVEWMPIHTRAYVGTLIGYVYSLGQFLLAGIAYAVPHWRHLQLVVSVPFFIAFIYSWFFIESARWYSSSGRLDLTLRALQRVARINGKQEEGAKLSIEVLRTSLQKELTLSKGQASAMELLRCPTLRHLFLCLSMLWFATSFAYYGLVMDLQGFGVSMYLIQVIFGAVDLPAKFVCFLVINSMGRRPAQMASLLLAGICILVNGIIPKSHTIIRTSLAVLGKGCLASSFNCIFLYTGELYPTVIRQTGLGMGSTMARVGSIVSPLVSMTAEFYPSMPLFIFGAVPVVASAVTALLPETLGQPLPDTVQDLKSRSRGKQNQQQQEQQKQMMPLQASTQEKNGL
Described as §1. It counts as functional, cell-based. The conditions noted are these: oocyte.

Data set [3] concerns the target T1, Solute carrier family 22 member 6. Description: TP_TRANSPORTER: inhibition of PAH uptake (PAH: 50 uM, alpha-KG: 1000 uM) in Xenopus laevis oocytes. It counts as functional, cell-based. The conditions noted are these: oocyte.
Data set [4] has the same target. Description: TP_TRANSPORTER: inhibition of PAH uptake (PAH: 50 uM, 2,4-D: 1000 uM) in Xenopus laevis oocytes. It counts as functional, cell-based. The conditions noted are these: oocyte.
Data set [5] has the same target. Description: TP_TRANSPORTER: inhibition of PAH uptake (PAH: 50 uM, BCG: 1000 uM) in Xenopus laevis oocytes. It counts as functional, cell-based. The conditions noted are these: oocyte.
Substrate in data set [6]: Nc1ccn(C[C@@H](CO)OCP(=O)(O)O)c(=O)n1
The description is as §1. The format is functional, cell-based, Oocyte.

Substrate in data set [7]: Nc1ncnc2c1ncn2CCOCP(=O)(O)O
Described as §1. It counts as functional, cell-based, Oocyte.

The text below walks through data of ChEMBL document CHEMBL2074319, “The antiviral nucleotide analogs cidofovir and adefovir are novel substrates for human and rat renal organic anion transporter 1” (Mol Pharmacol, 1999).

For `Nc1nc(N)c2ccn(CCOCP(=O)(O)O)c2n1`, the Activity result in data set [1] and in data set [2] was “substrate [+]” each time.

As for `O=C(O)CCC(=O)C(=O)O` [ALPHA-KETOGLUTARIC ACID], the Activity entry in data set [3] was “inhibitor [(at a rough estimate) 5 % of control]”.

In the case of `O=C(O)COc1ccc(Cl)cc1Cl` [2,4-DICHLOROPHENOXYACETIC ACID], the Activity result in data set [4] is “inhibitor [(at a rough estimate) <5 % of control]”.

Consider `Cc1c(C2(c3cc(Br)c(O)c(Br)c3C)OS(=O)(=O)c3ccccc32)cc(Br)c(O)c1Br` [BROMCRESOL GREEN], for which, in data set [5], the Activity result is “inhibitor [(at a rough estimate) <5 % of control]”.

As for `Nc1nc2c(ncn2CCOCP(=O)(O)O)c(=O)[nH]1` [GS-438], the Activity entry in data set [1] and in data set [2] was “substrate [+]” throughout.

B1: Solute carrier family 22 member 6 (Homo sapiens) (protein)
chain: MAFNDLLQQVGGVGRFQQIQVTLVVLPLLLMASHNTLQNFTAAIPTHHCRPPADANLSKNGGLEVWLPRDRQGQPESCLRFTSPQWGLPFLNGTEANGTGATEPCTDGWIYDNSTFPSTIVTEWDLVCSHRALRQLAQSLYMVGVLLGAMVFGYLADRLGRRKVLILNYLQTAVSGTCAAFAPNFPIYCAFRLLSGMALAGISLNCMTLNVEWMPIHTRACVGTLIGYVYSLGQFLLAGVAYAVPHWRHLQLLVSAPFFAFFIYSWFFIESARWHSSSGRLDLTLRALQRVARINGKREEGAKLSMEVLRASLQKELTMGKGQASAMELLRCPTLRHLFLCLSMLWFATSFAYYGLVMDLQGFGVSIYLIQVIFGAVDLPAKLVGFLVINSLGRRPAQMAALLLAGICILLNGVIPQDQSIVRTSLAVLGKGCLAASFNCIFLYTGELYPTMIRQTGMGMGSTMARVGSIVSPLVSMTAELYPSMPLFIYGAVPVAASAVTVLLPETLGQPLPDTVQDLESRWAPTQKEAGIYPRKGKQTRQQQEHQKYMVPLQASAQEKNGL
As for B1, the values for the Km in data set [6] and in data set [7] were 46 µM and 30 µM, respectively.

B2: Solute carrier family 22 member 6 (Rattus norvegicus) (protein)
chain: MAFNDLLKQVGGVGRFQLIQVTMVVAPLLLMASHNTLQNFTAAIPPHHCRPPANANLSKDGGLEAWLPLDKQGQPESCLRFTSPQWGPPFYNGTEANGTRVTEPCIDGWVYDNSTFPSTIVTEWNLVCSHRAFRQLAQSLYMVGVLLGAMVFGYLADRLGRRKVLILNYLQTAVSGTCAAYAPNYTVYCVFRLLSGMSLASIAINCMTLNVEWMPIHTRAYVGTLIGYVYSLGQFLLAGIAYAVPHWRHLQLVVSVPFFIAFIYSWFFIESARWYSSSGRLDLTLRALQRVARINGKQEEGAKLSIEVLRTSLQKELTLSKGQASAMELLRCPTLRHLFLCLSMLWFATSFAYYGLVMDLQGFGVSMYLIQVIFGAVDLPAKFVCFLVINSMGRRPAQMASLLLAGICILVNGIIPKSHTIIRTSLAVLGKGCLASSFNCIFLYTGELYPTVIRQTGLGMGSTMARVGSIVSPLVSMTAEFYPSMPLFIFGAVPVVASAVTALLPETLGQPLPDTVQDLKSRSRGKQNQQQQEQQKQMMPLQASTQEKNGL
Consider B2, for which the Km (in general, the concentration of substrate that gives half-maximal velocity) in data set [6] was 238 µM; in data set [7], 270 µM.
